The source of these data is patent US20090053294A1, “Anti Mineralocorticoid Therapy of Infection” (priority 2005, published 2009).

The subject of series [1] is fresh human peripheral blood lymphocytes (PBL). The series is classed as cell-based.
The next series concerns HIV-1. The conditions noted are these: PBL, MOI 0.2, day 7, RT activity in supernatant.
The conditions of series [2]: in vivo; cited from earlier work.
Series [3] has as its system monocytotropic HIV-1 isolates. Put plainly: Anti-HIV activity in fresh human monocyte-macrophages (p24 ELISA). The format is cell-based. The note with it: MOI 0.1, p24 ELISA day 7 post-infection. As to the method: (§1) For isolation of adherent cells, 3×10^6 non-PHA stimulated peripheral blood cells are resuspended in Hanks buffered saline (with calcium and magnesium) supplemented with 10% human AB serum. The cells are placed in a 96-well microtiter plate at 37° C. for 2 hours. Non-adherent cells are removed by vigorously washing six times. The adherent cells are cultured for 7 days in RPMI 1640 tissue culture medium with 15% fetal bovine serum. The cultures are carefully monitored for confluency during this incubation period. Infection of the cells is performed with monocytotropic HIV-1 isolates. High titer pools of each of these viruses are harvested from Infected cultures of peripheral blood adherent cells and frozen in 1.0 ml aliquots at […]. […] Compounds to be evaluated in the monocyte-macrophage assay are added to the monolayers shortly before infection in order to maximize the potential for identifying active compounds.
(§2) At 2 days post-infection, the medium is decanted and the cultures washed twice with complete medium in order to remove excess virus. […] Control curves are generated in each assay to accurately quantitate the amount of capsid protein in each sample. Data is obtained by spectrophotometric analysis at 450 nm using a Molecular Devices Vmax plate reader. P24 concentrations are calculated from the optical density values by use of the Molecular Device software package Soft Max.
On the technique in general: An ELISA detects its analyte on a solid surface through an enzyme-linked reagent.

The subject of series [4] is fresh human monocyte-macrophages. Kind of series: Cytotoxicity in monocyte-macrophages (XTT staining). The format is cell-based. The conditions noted are these: XTT staining day 7 post-infection. As to the method: as §1, §2
(In general: Tetrazolium dyes change colour on reduction, which living cells bring about.)

For another series, the target named is T1, progesterone receptors (Homo sapiens, UniProt P06401).
T1 sequence (P06401 1-933): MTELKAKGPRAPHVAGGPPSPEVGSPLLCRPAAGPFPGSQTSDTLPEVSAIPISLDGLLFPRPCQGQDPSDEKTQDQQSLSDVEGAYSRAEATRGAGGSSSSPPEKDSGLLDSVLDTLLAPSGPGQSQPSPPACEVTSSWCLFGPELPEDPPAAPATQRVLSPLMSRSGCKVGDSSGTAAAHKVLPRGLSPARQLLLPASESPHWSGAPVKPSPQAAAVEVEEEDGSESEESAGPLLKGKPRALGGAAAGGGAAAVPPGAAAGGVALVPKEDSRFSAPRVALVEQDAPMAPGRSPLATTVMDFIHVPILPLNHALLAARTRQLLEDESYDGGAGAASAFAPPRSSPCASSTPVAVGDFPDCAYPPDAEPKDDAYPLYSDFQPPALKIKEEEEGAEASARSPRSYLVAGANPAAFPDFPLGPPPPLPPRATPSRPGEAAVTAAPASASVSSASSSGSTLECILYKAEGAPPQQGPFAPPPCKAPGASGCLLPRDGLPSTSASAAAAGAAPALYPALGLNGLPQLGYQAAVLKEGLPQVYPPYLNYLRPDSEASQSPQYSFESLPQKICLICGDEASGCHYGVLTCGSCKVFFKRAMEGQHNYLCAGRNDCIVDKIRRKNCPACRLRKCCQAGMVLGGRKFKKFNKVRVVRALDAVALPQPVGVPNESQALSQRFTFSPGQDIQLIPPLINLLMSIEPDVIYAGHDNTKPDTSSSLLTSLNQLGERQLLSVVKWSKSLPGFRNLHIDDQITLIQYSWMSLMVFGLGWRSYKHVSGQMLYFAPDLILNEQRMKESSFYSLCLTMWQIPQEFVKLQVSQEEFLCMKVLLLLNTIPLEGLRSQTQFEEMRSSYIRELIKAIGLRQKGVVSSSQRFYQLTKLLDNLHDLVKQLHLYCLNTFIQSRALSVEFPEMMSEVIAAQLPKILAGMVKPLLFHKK
The note with it: cited from earlier work.

For series [5] the following is noted: 50 mg dose; cited from earlier work.

SMILES strings stand for the structures.

On to `CC(=O)S[C@@H]1CC2=CC(=O)CC[C@]2(C)[C@H]2CC[C@@]3(C)[C@@H](CC[C@@]34CCC(=O)O4)[C@H]12` [spironolactone, 17-hydroxy-7-alpha-mercapto-3oxo-17-alpha-pregn-4ene-21-carboxylic acid gamma-lactone acetate], for which, in series [1], the “health / cell growth of T-lymphocyte cultures” value is reported as “remain healthy at all concentrations”. The “% HIV-1 levels / viral replication in T-lymphocyte cultures” value in the series on HIV-1 was “decreased in a dose dependent manner”. Moreover, the extent of metabolism entry in series [2] is “extensively metabolised”.

Take `C[C@]12CCC(=O)C=C1C=C[C@@H]1[C@@H]2CC[C@@]2(C)[C@H]1CC[C@@]2(O)CCC(=O)O` [potassium canrenoate]: in series [1], the “health / cell growth of T-lymphocyte cultures” value is listed as “remain healthy at all concentrations”. The “HIV-1 levels in macrophages” value in series [3] is “decreased in a dose dependent fashion”. Also, the “cell viability in macrophages” value in series [4] was “little effect on cell viability”. Also, the “% HIV-1 levels / viral replication in T-lymphocyte cultures” value in the series on HIV-1 is on record as “decreased in a dose dependent manner”.

For `COC(=O)[C@@H]1CC2=CC(=O)CC[C@]2(C)[C@@]23O[C@@H]2C[C@@]2(C)[C@@H](CC[C@@]24CCC(=O)O4)[C@H]13` [Epoxymexrenone, epoxymexrenone], the “binding affinity for progesterone receptors” value at progesterone receptors is “reduced”. Also, the “Na+/K+ effect” value in series [5] was “equipotent with spironolactone”.
